Here are results for 19 compounds from patent publication US8580795B2, “Heterocyclic compounds as phosphodiesterase inhibitors” (Orchid Chemicals & Pharmaceuticals Limited, priority 2009, dated 2013).

Test [1] relates to TNF-α. As to the kind of experiment: In vitro measurement of TNF-α production in LPS-stimulated human PBMC (ELISA). The test is classed as cell-based. The following applies: 100 nM compound, LPS 1 μg/mL, 18 h, NA: Not active. The protocol:
Biological Activity In Vitro Measurement of Tumor Necrosis Factor Alpha (TNF-α):
This assay determines the effect of test compounds on the production of TNF-α in human Peripheral Blood Mononuclear Cells (PBMC). Compounds were tested for their ability to inhibit the activity of TNF α in human PBMC. PBMC were isolated from blood (of healthy volunteers) using BD Vacutainer CPT™ (Cell preparation tube, BD Bio Science) and suspended in RPMI (Rosewell park memorial institute) medium (Physiol. Res. 2003, 52, 593-598). The test compounds were pre-incubated with PBMC (0.5 million/incubation well) for 15 minutes at 37° C. and then stimulated with Lipopolysaccharide (Escherichia coli: B4; 1 μg/mL) for 18 h at 37° C. in 5% CO2. The levels of TNF-α in the cell culture medium were estimated using enzyme-linked immunosorbent assay performed in a 96 well format as per the procedure of the manufacturer (Cayman Chemical, Ann Arbor, USA).

Test [2] concerns TNF-α. As to the kind of experiment: LPS induced sepsis for measurement of TNF-α inhibition in mice. The test is classed as in vivo, Female Swiss albino mice. To be noted: 10 mg/kg oral, 30 min before LPS i.p., serum 90 min after LPS. The protocol:
LPS Induced Sepsis for Measurement of TNF-α Inhibition in Mice:
The LPS induced sepsis model in mice was performed as described by Les sekut et al (J Lab Clin Med 1994; 124, 813-20). Female Swiss albino mice were selected and the body weights were equivalent within each group. The mice were fasted for 20 h with free access to water. The mice were dosed orally with the test compound suspended in vehicle containing 0.5% Tween 80 in 0.25% Carboxy-methylcellulose sodium salt. The control mice were administered the vehicle alone. After 30 minutes of oral dosing, mice were injected with 500 μg of Lipopolysaccharide (Escherichia coli, LPS: B4 from Sigma) in phosphate buffer saline solution into the intraperitoneal cavity of the mice. After 90 minutes of LPS administration mice were bled via retro-orbital sinus puncture. Blood samples were stored overnight at 4° C. Serum samples were collected by centrifuging the samples at 4000 rpm for 15 minutes at 4° C. Immediately the serum samples were analysed for TNF-α levels using commercially available mouse TNF-α ELISA kit (Amersham Biosciences) and assay was performed by the manufacturer instruction.

Test [3] deals with human PDE4B enzyme (PDE4B2) (Homo sapiens, UniProt Q07343). As to the kind of experiment: Phosphodiesterase 4 screening assay (SPA, [3H]-cAMP). It counts as biochemical. The following applies: 100 nM compound; 0.5 μM cAMP. On the procedure:
Phosphodiesterase 4 Screening Assay:
PDE4 (Phosphodiesterase type IV) enzymes convert cyclic AMP (cAMP) into AMP. The assay is performed to determine the effect of test compounds on the inhibition of purified human PDE4B enzyme.
The assay involves the detection of the Tritiated AMP (product) using SPA beads known as yittrium silicate. The linear AMP bind preferentially to SPA yittrium silicate beads compared to cyclic nucleotides in the presence of zinc sulphate. The binding of the radiolabelled product to the bead brings the isotope into close proximity to allow radiation from the tritium to excite the scintillant within the bead to emit light. The unbound radiolabel is not close enough to allow this energy transfer and the light emitted due to the binding of tritiated AMP is detected as cpm (counts per minute).
PDE Activity (SPA Based Assay Protocol):
PDE4B activity was inhibited by the compounds according to the invention in a modified SPA (scintillation proximity assay) test, supplied by GE Healthcare Life Sciences (see procedural instructions “Phosphodiesterase [^3H]-cAMP SPA enzyme assay, code TRKQ 7090”), carried out in 96-well microtitre plates. The test volume is 100 μL and contains 50 mM Tris buffer (pH 7.4), 8.3 mM Mg^2+, in the presence of inhibitor or test compound, and containing PDE4B2 enzyme (sufficient to ensure that 10-20% of the cAMP is converted, under the said experimental conditions). […] After a pre-incubation of 5 minutes at 37° C., the reaction is started by adding the substrate (cAMP; 0.5 μM cAMP, including about 50,000 cpm of [^3H]-cAMP) and the assays are incubated for a further 10 minutes; after that, they are stopped by adding SPA beads containing 18 mM ZnSO4 (50 μl). After the beads have been sedimented (>30 minutes), the microtitre plates are analyzed in a Microplate luminescence detection device (TopCount* NXT; PerkinElmer Life Sciences). Where, the signal in the absence of enzyme is defined as the background. 100% activity was defined as the signal detected in the presence of enzyme and DMSO with the background subtracted. The corresponding IC50 values of the compounds for the inhibition of PDE4B2 activity are determined from the concentration-effect curves by means of non-linear regression fit of the standard 4-parameter/multiple binding sites equation from a eight- to ten-point titration. (Catherine B. et al. Anal. Biochem., 1999, 275(2), pp. 148-155, David M. E. Biochem. Pharmacol., 1999, 57, pp. 965-973)

In another test the test system is LPS induced neutrophilia. As to the kind of experiment: LPS induced neutrophilia model for asthma and COPD. The following applies: rats, BAL 6 h after LPS exposure. It counts as in vivo, Male Sprague Dawley rats. On the procedure: LPS Induced Neutrophilia Model for Asthma and COPD:
LPS induced neutrophilia in Sprague Dawley rats was performed using the protocol described in Pulm Pharmacol & Ther 17,133-140, 2004. Male Sprague. Dawley rats were acclimatized to laboratory conditions five to seven days prior to the start of the experiment. They were randomly distributed to various groups based on body weight. Except normal group all the animals were exposed to LPS 100 μg/ml for 40 minutes. The rats were dosed with the test compound suspended in the vehicle containing 0.25% carboxymethylcellulose before half an hour of LPS exposure. BAL was performed 6 h after LPS exposure, total cell count and DLC was done and compared with control and the standard drug.

What is called inhibition is the relative decrease from the control value, in per cent. Higher therefore signals a response far below the control.

Sequence of human PDE4B enzyme (PDE4B2) (Q07343 1-564 isoform Q07343-2): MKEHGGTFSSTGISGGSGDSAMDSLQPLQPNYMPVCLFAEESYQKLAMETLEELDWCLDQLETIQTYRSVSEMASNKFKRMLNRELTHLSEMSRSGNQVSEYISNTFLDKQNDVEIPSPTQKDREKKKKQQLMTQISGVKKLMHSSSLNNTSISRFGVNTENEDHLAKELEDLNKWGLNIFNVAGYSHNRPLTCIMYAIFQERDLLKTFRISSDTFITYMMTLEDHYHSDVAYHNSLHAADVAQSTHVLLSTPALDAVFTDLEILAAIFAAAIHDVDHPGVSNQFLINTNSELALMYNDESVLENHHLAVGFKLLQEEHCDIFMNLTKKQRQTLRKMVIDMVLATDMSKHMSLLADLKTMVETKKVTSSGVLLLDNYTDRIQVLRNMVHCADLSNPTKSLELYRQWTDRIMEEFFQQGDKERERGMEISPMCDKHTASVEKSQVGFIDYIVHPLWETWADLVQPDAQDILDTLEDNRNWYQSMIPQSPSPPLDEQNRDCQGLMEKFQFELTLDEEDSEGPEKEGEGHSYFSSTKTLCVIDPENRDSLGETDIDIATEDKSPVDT

Consider `COc1ccc(-c2nc(C(=O)Nc3c(Cl)cncc3Cl)cs2)c2c1oc1ccccc12` [Example 13, N-(3,5-Dichloropyridin-4-yl)-2-(4-methoxydibenzo[b,d]furan-1-yl)-1,3-thiazole-4-carboxamide], for which the inhibition at 0.1 µM was determined as 26.1% in the test with TNF-α [1] and 70.3% in test [3]. Further, in the test with TNF-α [2], the “TNF-α Inhibition (%)” value is 37.83%. Take `O=C(NC1CCC(O)CC1)c1csc(-c2ccc(OC(F)F)c3oc4ccccc4c23)n1` (stereo not shown) [Example 39, 2-((4-Difluoromethoxy)dibenzo[b,d]furan-1-yl)-N-(4-hydroxycyclohexyl)-1,3-thiazole-4-carboxamide]: the inhibition at 0.1 µM with TNF-α [1] was 77.7%. Moreover, the “LPS induced neutrophilia % inhibition” value in the test with LPS induced neutrophilia (Dose 10 mg/kg) worked out at 57.98%. As for `CC(=O)Nc1ccc2oc3c(OC(F)F)ccc(-c4nc(C(=O)O)cs4)c3c2c1` [Example 36, 2-[8-(Acetylamino)-4-(difluoromethoxy)dibenzo[b,d]furan-1-yl]-1,3-thiazole-4-carboxylic acid], the inhibition at 0.1 µM with TNF-α [1] amounted to 15.5%. Turning to `COc1ccc(-c2nc(C(N)=O)cs2)c2c1oc1ccccc12` [Example 25, 2-(4-Methoxydibenzo[b,d]furan-1-yl)-1,3-thiazole-4-carboxamide], the inhibition at 0.1 µM with TNF-α [1] is 35.5%; in test [3], 15.4%.

Compound `Cc1sc(-c2ccc(OC(F)F)c3oc4ccc(NS(C)(=O)=O)cc4c23)nc1C(=O)NC1CCC(O)CC1` (stereo not shown) [Example 35, 2-(4-(Difluoromethoxy)-8-(methylsulfonamido)dibenzo[b,d]furan-1-yl)-N-(4-hydroxycyclohexyl)-5-methyl-1,3thiazole-4-carboxamide] displayed an inhibition at 0.1 µM with TNF-α [1] of 61.8%. Also, the “LPS induced neutrophilia % inhibition” value in the test on LPS induced neutrophilia (Dose 10 mg/kg) turned out to be 19.29%.

Take `COc1ccc(-c2nc(CCC(=O)Nc3c(Cl)cncc3Cl)cs2)c2c1oc1ccccc12` [Example 11, N-(3,5-Dichloropyridin-4-yl)-3-(2-(4-methoxydibenzo[b,d]furan-1-yl)-1,3-thiazol-4-yl)propanamide]: the “TNF-α Inhibition (%)” value in the test on TNF-α [2] was 46.70%. This compound also showed an inhibition at 0.1 µM in test [3] of 32.8%. In the test on TNF-α [1], `COc1ccc(-c2nc(C(=O)NN3CCOCC3)cs2)c2c1oc1ccccc12` [Example 30, 2-(4-Methoxydibenzo[b,d]furan-1-yl)-N-morpholino-1,3-thiazole-4-carboxamide] showed an inhibition at 0.1 µM of 21.9%. As to `O=C(Nc1c(Cl)cncc1Cl)c1csc(-c2ccc(OC(F)F)c3oc4ccccc4c23)n1` [Example 14, N-(3,5-dichloropyridin-4-yl)-2-(4-(difluoromethoxy)dibenzo[b,d]furan-1-yl)-1,3-thiazole-4-carboxamide], the inhibition at 0.1 µM in the test with TNF-α [1] stood at 14.5%; in test [3], 42.3%. Moreover, in the test on TNF-α [2], the “TNF-α Inhibition (%)” value is reported as 40.67%. Compound `CONC(=O)c1csc(-c2ccc(OC(F)F)c3oc4ccccc4c23)n1` [Example 42, 2-((4-Difluoromethoxy)dibenzo[b,d]furan-1-yl)-N-methoxy-1,3-thiazole-4-carboxamide] had an inhibition at 0.1 µM with TNF-α [1] of 8.5%. As to `COc1ccc(-c2nc(C(=O)Nc3c(Cl)cncc3Cl)c(C)s2)c2c1oc1ccccc12` [Example 28, N-(3,5-Dichloropyridin-4-yl)-2-(4-methoxydibenzo[b,d]furan-1-yl)-5-methyl-1,3-thiazole-4-carboxamide], the inhibition at 0.1 µM in the test on TNF-α [1] was determined as 0.88%. The same measure, in the same setting: as for `CS(=O)(=O)Nc1ccc2oc3c(OC(F)F)ccc(-c4nc(C(=O)Nc5c(Cl)cncc5Cl)cs4)c3c2c1` [Example 34], the figure is 25.1%.

`CC(=O)Nc1ccc2oc3c(OC(F)F)ccc(-c4nc(C(=O)NC5CCC(O)CC5)cs4)c3c2c1` (stereo not shown) [Example 38, 2-(8-Acetamido-4-(difluoromethoxy)dibenzo[b,d]furan-1-yl)-N-(4-hydroxycyclohexyl)-1,3-thiazole-4-carboxamide] yielded an inhibition at 0.1 µM in the test on TNF-α [1] of 83.4%. Besides, the “LPS induced neutrophilia % inhibition” value with LPS induced neutrophilia (Dose 5 mg/kg) is reported as 35.68%. In turn, `O=C(NC1CCC(O)CC1)c1csc(-c2ccc(OC(F)F)c3oc4ccc(C(F)(F)F)cc4c23)n1` (stereo not shown) [Example 44, 2-(4-(Difluoromethoxy)-8-(trifluoromethyl)dibenzo[b,d]furan-1-yl)-N-(4-hydroxycyclohexyl)-1,3-thiazole-4-carboxamide] gave an inhibition at 0.1 µM in the test with TNF-α [1] of 17.2%. As for `CS(=O)(=O)Nc1ccc2oc3c(OC(F)F)ccc(-c4nc(C(=O)N[C@H]5CC[C@H](O)CC5)co4)c3c2c1` [Example 50, 2-(4-(Difluoromethoxy)-8-(methylsulfonamido)dibenzo[b,d]furan-1-yl)-N-(4-hydroxycyclohexyl)-1,3-oxazole-4-carboxamide], in the test with TNF-α [2], the “TNF-α Inhibition (%)” value came to 13.15%.

`CCNC(=O)c1nc(-c2ccc(OC)c3oc4ccccc4c23)sc1C` [Example 29, N-Ethyl-2-(4-methoxydibenzo[b,d]furan-1-yl]-5-methyl-1,3-thiazole-4-carboxamide] came in with an inhibition at 0.1 µM in the test with TNF-α [1] of 18.4%. With `COc1ccc(-c2nc(C(=O)NC3CCCC3)c(C)s2)c2c1oc1ccccc12` [Example 26, N-Cyclopentyl-2-(4-methoxydibenzo[b,d]furan-1-yl)-5-methyl-1,3-thiazole-4-carboxamide], in the test on TNF-α [1], the inhibition at 0.1 µM is 21.9%. On to `O=C(NCC(F)(F)F)c1csc(-c2ccc(OC(F)F)c3oc4ccccc4c23)n1` [Example 40, 2-((4-Difluoromethoxy)dibenzo[b,d]furan-1-yl)-N-(2,2,2-trifluoroethyl)-1,3-thiazole-4-carboxamide], for which the inhibition at 0.1 µM with TNF-α [1] stood at 26.7%. The same measure, in the same setting: to `CS(=O)(=O)Nc1ccc2oc3c(OC(F)F)ccc(-c4nc(C(=O)NC5CCC(O)CC5)cs4)c3c2c1` (stereo not shown) [Example 46, 2-(4-(Difluoromethoxy)-(methylsulfonamido)dibenzo[b,d]furan-1-yl)-N-(4-hydroxycyclohexyl)-1,3-thiazole-4-carboxamide] belongs 78.6%. The same measure, in the same setting: as for `COc1ccc(-c2nc(-c3cccc(C(=O)O)n3)cs2)c2c1oc1ccccc12` [Example 2, 6-(2-(4-Methoxydibenzo[b,d]furan-1-yl)-1,3-thiazol-4-yl)picolinic acid], the figure is 26.1%.
